Data on 15 compounds can be found in ChEMBL document CHEMBL5252675, “Discovery of new 5-substituted-indole-2-carboxamides as dual epidermal growth factor receptor (EGFR)/cyclin dependent kinase-2 (CDK2) inhibitors with potent antiproliferative action” (RSC Med Chem, 2023).

For one series, the system named is A549. As to the kind of experiment: Antiproliferative activity against human A549 cells by MTT assay. In kind it is functional, cell-based.
The test system of the next series is MCF7. As to the kind of experiment: Antiproliferative activity against human MCF7 cells by MTT assay. In kind it is functional, cell-based.
Another series concerns HT-29. The series can be described thus: Antiproliferative activity against human HT-29 cells by MTT assay. In kind it is functional, cell-based.
A further series deals with MCF-10A. As to the kind of experiment: Cytotoxicity against human MCF-10A cells assessed as reduction in cell viability at 50 uM incubated for 4 days by MTT assay. The settings on record: 96 h, time 4 day. It counts as toxicity, cell-based.
For the next series, the system named is PANC-1. As to the kind of experiment: Antiproliferative activity against human PANC-1 cells by MTT assay. In kind it is functional, cell-based.
In series [1] the target is Epidermal growth factor receptor (Homo sapiens, UniProt P00533). As to the kind of experiment: Inhibition of EGFR (unknown origin).
In series [2] the target is Cyclin-dependent kinase 2 (Homo sapiens, UniProt P24941).
Description: Inhibition of CDK2 (unknown origin)

Sequence of Epidermal growth factor receptor (P00533 whole entry): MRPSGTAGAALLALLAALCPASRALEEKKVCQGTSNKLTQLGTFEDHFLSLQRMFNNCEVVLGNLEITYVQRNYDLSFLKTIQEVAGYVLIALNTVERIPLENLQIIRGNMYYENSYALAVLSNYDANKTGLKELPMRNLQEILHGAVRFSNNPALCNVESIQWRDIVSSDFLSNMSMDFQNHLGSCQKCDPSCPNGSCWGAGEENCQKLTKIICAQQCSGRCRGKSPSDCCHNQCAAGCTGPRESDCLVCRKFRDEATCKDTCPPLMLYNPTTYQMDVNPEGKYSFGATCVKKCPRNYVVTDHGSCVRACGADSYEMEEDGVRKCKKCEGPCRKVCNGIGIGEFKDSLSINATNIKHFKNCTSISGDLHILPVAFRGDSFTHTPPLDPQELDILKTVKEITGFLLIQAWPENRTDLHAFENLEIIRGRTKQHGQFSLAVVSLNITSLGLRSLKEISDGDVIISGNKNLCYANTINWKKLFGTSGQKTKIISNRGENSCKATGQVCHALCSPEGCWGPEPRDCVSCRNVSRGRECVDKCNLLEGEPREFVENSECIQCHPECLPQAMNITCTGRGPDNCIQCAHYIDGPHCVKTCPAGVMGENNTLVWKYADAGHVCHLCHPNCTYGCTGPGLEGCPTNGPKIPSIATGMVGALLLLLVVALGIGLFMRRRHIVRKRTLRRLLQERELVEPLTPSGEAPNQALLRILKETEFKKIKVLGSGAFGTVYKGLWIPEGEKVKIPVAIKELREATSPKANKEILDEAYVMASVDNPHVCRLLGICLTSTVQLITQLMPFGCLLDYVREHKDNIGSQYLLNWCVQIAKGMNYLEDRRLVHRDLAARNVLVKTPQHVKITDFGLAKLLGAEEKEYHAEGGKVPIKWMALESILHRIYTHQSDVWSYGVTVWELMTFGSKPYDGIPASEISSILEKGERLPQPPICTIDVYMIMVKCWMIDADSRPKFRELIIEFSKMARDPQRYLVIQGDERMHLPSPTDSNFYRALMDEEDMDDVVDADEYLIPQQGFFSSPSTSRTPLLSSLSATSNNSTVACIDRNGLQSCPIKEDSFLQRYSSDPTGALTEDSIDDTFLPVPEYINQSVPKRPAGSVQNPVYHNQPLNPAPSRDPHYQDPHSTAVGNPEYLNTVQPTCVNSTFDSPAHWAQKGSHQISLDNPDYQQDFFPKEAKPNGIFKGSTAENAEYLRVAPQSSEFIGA

On to `CCc1c(C(=O)N2CCN(c3ccccc3)CC2)[nH]c2ccc(C(F)(F)F)cc12`, for which the IC50 came to 117 nM with A549, 123 nM in the series with MCF7, 130 nM in the series on HT-29 and 130 nM in the series with PANC-1. In addition, the Activity with MCF-10A is on record as 91%.

Turning to `CCc1c(C(=O)NCCc2ccc(N3CCOCC3)cc2)[nH]c2ccc(Br)cc12`, the IC50 with A549 stood at 67 nM; in the series on MCF7, 74 nM; with HT-29, 79 nM; with PANC-1, 75 nM. The Activity in the series on MCF-10A came to 91%.

For the compound `CCc1c(C(=O)NCCc2ccccc2)[nH]c2ccc(C(F)(F)F)cc12`, the 50% inhibitory concentration (IC50) with A549 is 157 nM; in the series with MCF7, 162 nM; with HT-29, 170 nM; in the series with PANC-1, 165 nM. The Activity in the series on MCF-10A was 88%.

For `CCc1c(C(=O)NCCc2ccccc2)[nH]c2ccc(Br)cc12`, the half-inhibitory concentration (IC50) with A549 stood at 138 nM; in the series on MCF7 it was 142 nM; with HT-29, 148 nM; with PANC-1 it was 145 nM. In addition, the Activity in the series with MCF-10A is reported as 89%.

For the compound `CCc1c(C(=O)N2CCN(c3ccccc3)CC2)[nH]c2ccc(Br)cc12`, the IC50 was 185 nM in the series with A549, 190 nM with MCF7, 202 nM in the series on HT-29 and 195 nM in the series with PANC-1. Moreover, the Activity in the series on MCF-10A was 85%.

With `Cc1c(C(=O)NCCc2ccc(F)cc2)[nH]c2cc(F)ccc12`, the 50% inhibitory concentration (IC50) came to 98 nM in series [1] and 34 nM in series [2].

Turning to `CCc1c(C(=O)N2CCN(c3ccccc3)CC2)[nH]c2ccc(C)cc12`, the IC50 came to 125 nM with A549, 132 nM in the series on MCF7, 140 nM in the series with HT-29 and 137 nM in the series with PANC-1. For the same compound, the Activity with MCF-10A worked out at 90%.

With `CCc1c(C(=O)NCCc2ccc(N3CCOCC3)cc2)[nH]c2ccc(C)cc12`, the IC50 in series [1] amounted to 85 nM; with A549, 34 nM; with MCF7 it was 42 nM; in the series with HT-29 it was 37 nM; in the series with PANC-1, 35 nM; in series [2], 16 nM. Moreover, the Activity with MCF-10A was 89%.

For the compound `CCc1c(C(=O)NCCc2ccc(N3CCCCC3)cc2)[nH]c2ccc(Br)cc12`, the concentration for half-maximal inhibition (IC50) came out at 89 nM in the series on A549, 93 nM in the series with MCF7, 97 nM in the series with HT-29 and 97 nM in the series with PANC-1. Further, the Activity in the series with MCF-10A is given as 90%.

In the case of `CCc1c(C(=O)NCCc2ccc(N3CCCCC3)cc2)[nH]c2ccc(C)cc12`, the half-inhibitory concentration (IC50) in series [1] came out at 117 nM; with A549 it was 51 nM; with MCF7, 54 nM; with HT-29, 57 nM; with PANC-1, 59 nM; in series [2] it was 33 nM. Besides, the Activity with MCF-10A is 89%.

Turning to `CCc1c(C(=O)NCCc2ccccc2)[nH]c2ccc(C)cc12`, the concentration for half-maximal inhibition (IC50) in series [1] came out at 134 nM; with A549 it was 64 nM; in the series on MCF7, 69 nM; in the series on HT-29, 75 nM; in the series on PANC-1, 72 nM; in series [2] it was 46 nM. Besides, the Activity in the series with MCF-10A is given as 87%.

`CCc1c(C(=O)NCCc2ccc(N(C)C)cc2)[nH]c2ccc(Br)cc12`: the half-inhibitory concentration (IC50) in the series on A549 turned out to be 108 nM; with MCF7 it was 112 nM; in the series on HT-29 it was 120 nM; in the series on PANC-1, 115 nM. Also, the Activity in the series with MCF-10A stood at 91%.

With `CCc1c(C(=O)NCCc2ccc(N3CCCC3C)cc2)[nH]c2ccc(Br)cc12` (stereo not given), the 50% inhibitory concentration (IC50) in the series with A549 is 172 nM; with MCF7, 185 nM; in the series on HT-29, 197 nM; in the series with PANC-1, 190 nM. The Activity in the series with MCF-10A turned out to be 86%.

Take `CCc1c(C(=O)NCCc2ccc(N3CCOCC3)cc2)[nH]c2ccc(C(F)(F)F)cc12`: the half-maximal inhibitory concentration (IC50) is 94 nM in series [1]; 43 nM in the series on A549; 45 nM in the series on MCF7; 55 nM in the series with HT-29; 52 nM in the series with PANC-1; 24 nM in series [2]. Besides, in the series with MCF-10A, the Activity was determined as 87%.

As to `CCc1c(C(=O)NCCc2ccc(N3CCCCC3)cc2)[nH]c2ccc(C(F)(F)F)cc12`, the 50% inhibitory concentration (IC50) with A549 turned out to be 77 nM; with MCF7, 82 nM; with HT-29 it was 87 nM; in the series with PANC-1 it was 85 nM. In addition, the Activity in the series with MCF-10A is recorded as 85%.
